In patent US20250136579A1, “SALTS AND FREE BASES OF BIFUNCTIONAL COMPOUND AND POLYMORPH FORMS THEREOF” (NURIX THERAPEUTICS, INC., priority 2023, published 2025):
Where two headings read alike, the source gives them in different places.

Experiments:
[1] = acid (counterion) used in salt screen; cited from earlier work
[2] = water solubility, visual solubility estimation using pipet method; type: physicochemical; conditions: thermodynamic from solid
[3] = overnight slurry in solvent, NMR analysis of recovered solids; type: physicochemical
[4] = pKa (base) of the free base compound of Formula (I); type: physicochemical
Description: (§1) The free base compound of Formula (I) was used as a starting material. The compound of Formula (I) (MW 806.973 g/mol) is a chimeric targeting molecule that has two ligands connected by a linker.

[5] = kinetic solubility at pH 7.4; type: physicochemical; conditions: pH 7.4, aqueous buffer, kinetic from dmso stock
Description: as §1

[6] = estimated solubility by adding test solvent in aliquots to weighed solid, visual inspection; type: physicochemical; conditions: thermodynamic from solid, read-out: Solubility
Protocol: Solubilities of the compound of Formula (I), free base, in a few solvents were estimated. The experiments were carried out by adding the test solvent in aliquots to weighed portions of solid. Whether dissolution had occurred was judged by visual inspection after addition of each solvent aliquot. Solubility numbers were calculated by dividing the weight of the sample by total amount of solvent used to dissolve the sample. The actual solubilities may be greater than the numbers calculated because of the use of solvent aliquots that were too large or because of slow dissolution rates. […] The solubility number is expressed as “greater than or equal to” if dissolution occurred on addition of the first solvent aliquot.
Solubilities of Fumarate Salt Form A are shown in Tables 8 and 9, in selected solvents and aqueous binary mixtures.
Solubilities of the compound of Formula (I), Fumarate Salt Form A, are shown in Tables 15 and 16, in selected solvents and aqueous binary mixtures.

[7] = dynamic vapor sorption (DVS) analysis, TA Instruments Q5000, 5 to 95% RH; type: physicochemical
Protocol: For Fumarate Salt Form A, Dynamic vapor sorption (DVS) analysis was carried out using a TA Instruments Q5000 Dynamic Vapor Sorption analyser. The instrument was calibrated with standard weights and a sodium bromide standard for humidity. Approximately 10-25 mg of sample was loaded into a metal coated quartz pan for analysis. The sample was analysed at 25° C. with a maximum equilibration time of one hour in 10% relative humidity (RH) steps from 5 to 95% RH (adsorption cycle) and from 95 to 5% RH (desorption cycle). The movement from one step to the next occurred either after satisfying the equilibrium criterion of 0.01% weight change, or when the equilibrium criterion was not met after one hour. The percent weight change values were then calculated.

O=C(O)[C@H](O)[C@@H](O)[C@H](O)[C@H](O)CO [D-gluconic]
pKa [1]: 3.76

CN1CCN([C@@H]2CCCN(c3cnc(C(N)=O)c(Nc4ccc(C5CCN(CC6CCN(c7ccc(C(=O)N[C@H]8CCC(=O)NC8=O)nc7)CC6)CC5)cc4)n3)C2)C1=O.O=C(O)/C=C\C(=O)O [Maleate Salt Form A]
solubility [2]: < 300 µg/mL | 1H NMR, post-EtOH slurry ([3]; slurry stirred overnight in EtOH): Consistent with a 1:1 salt | 1H NMR, post-water slurry ([3]; slurry stirred overnight in water): Not consistent with 1:1 salt (0.4

CN1CCN([C@@H]2CCCN(c3cnc(C(N)=O)c(Nc4ccc(C5CCN(CC6CCN(c7ccc(C(=O)N[C@H]8CCC(=O)NC8=O)nc7)CC6)CC5)cc4)n3)C2)C1=O [free base compound of Formula (I)]
pKa [4]: ~6.5 | solubility kinetic [5]: 10 µM | solubility ([6]; aqueous with cosolvent or surfactant or cyclodextrin, 1,4-dioxane/H2O (60/40), aw 1.0, at 60° C.): 2000 µg/mL | solubility ([6]; aqueous with cosolvent or surfactant or cyclodextrin, 1-pentanol/H2O (saturated) (80:20 - 2 phase system), at 60° C.): < 3000 µg/mL | solubility ([6]; aqueous with cosolvent or surfactant or cyclodextrin, 2-propanol/H2O (80/20), aw 0.9, at 60° C.): < 2000 µg/mL | solubility ([6]; aqueous with cosolvent or surfactant or cyclodextrin, acetone/H2O (70/30), aw 0.85, at 60° C.): < 2000 µg/mL | solubility ([6]; aqueous with cosolvent or surfactant or cyclodextrin, acetonitrile/H2O (45/55), aw 0.9, at 60° C.): < 2000 µg/mL | solubility ([6]; aqueous with cosolvent or surfactant or cyclodextrin, ethanol/H2O (70/30), aw 0.8, at 60° C.): < 2000 µg/mL | solubility ([6]; aqueous with cosolvent or surfactant or cyclodextrin, methanol/H2O (50/50), aw 0.75, at 60° C.): < 2000 µg/mL | solubility ([6]; aqueous with cosolvent or surfactant or cyclodextrin, tetrahydrofuran/H2O (80/20), aw 1, at RT): 5000 µg/mL | solubility ([6]; organic solvent or mixture, 1,2-dichloroethane, at 45° C.): 2000 µg/mL | solubility ([6]; organic solvent or mixture, 1,4-dioxane, solubility without temperature): 6000 µg/mL | solubility ([6]; organic solvent or mixture, 2-methyltetrahydrofuran (2-MeTHF), solubility without temperature): < 1000 µg/mL | solubility ([6]; organic solvent or mixture, 2-propanol (2-PrOH), solubility without temperature): < 1000 µg/mL | solubility ([6]; organic solvent or mixture, acetone, solubility without temperature): < 1000 µg/mL | solubility ([6]; organic solvent or mixture, acetonitrile (ACN), solubility without temperature): < 1000 µg/mL | solubility ([6]; organic solvent or mixture, anisole, at 60° C.): < 1000 µg/mL | solubility ([6]; organic solvent or mixture, cyclohexane, at 60° C.): < 2000 µg/mL | solubility ([6]; organic solvent or mixture, dichloromethane (DCM), solubility without temperature): 17000 µg/mL | solubility ([6]; organic solvent or mixture, diethyl ether (Et2O), solubility without temperature): < 1000 µg/mL | solubility ([6]; organic solvent or mixture, dimethylformamide (DMF), solubility without temperature): 21000 µg/mL | solubility ([6]; organic solvent or mixture, dimethylsulfoxide (DMSO), solubility without temperature): 9000 µg/mL | solubility ([6]; organic solvent or mixture, ethanol (EtOH), solubility without temperature): < 1000 µg/mL | solubility ([6]; organic solvent or mixture, ethyl acetate (EtOAc), solubility without temperature): < 1000 µg/mL | solubility ([6]; organic solvent or mixture, heptane, at 60° C.): < 2000 µg/mL | solubility ([6]; organic solvent or mixture, methanol (MeOH), solubility without temperature): < 1000 µg/mL | solubility ([6]; organic solvent or mixture, methyl acetate (MeOAc), at 60° C.): < 1000 µg/mL | solubility ([6]; organic solvent or mixture, methyl ethyl ketone (MEK), solubility without temperature): < 1000 µg/mL | solubility ([6]; organic solvent or mixture, methyl tert-butyl ether (MTBE), at 60° C.): < 1000 µg/mL | solubility ([6]; organic solvent or mixture, tetrahydrofuran (THF), solubility without temperature): 9000 µg/mL | solubility ([6]; organic solvent or mixture, toluene, at 60° C.): < 2000 µg/mL | solubility ([6]; water, solubility without temperature): < 1000 µg/mL | DVS: weight gain up to 95% RH ([7]; 25° C.): approximately 7% | DVS: hygroscopicity ([7]; 25° C., 5 to 95% RH): moderately hygroscopic | Post-DVS XRPD ([7]; material after sorption/desorption cycle): unchanged

O=C(O)CNC(=O)c1ccccc1 [hippuric]
pKa [1]: 3.55
